# Patent publication US9663543B2 (priority 2014, dated 2017)
# Target: Human factor D (Homo sapiens (Human), UniProt P00746)
# Assay type: biochemical
# Human factor D, sequence (P00746 26-253 limits assumed): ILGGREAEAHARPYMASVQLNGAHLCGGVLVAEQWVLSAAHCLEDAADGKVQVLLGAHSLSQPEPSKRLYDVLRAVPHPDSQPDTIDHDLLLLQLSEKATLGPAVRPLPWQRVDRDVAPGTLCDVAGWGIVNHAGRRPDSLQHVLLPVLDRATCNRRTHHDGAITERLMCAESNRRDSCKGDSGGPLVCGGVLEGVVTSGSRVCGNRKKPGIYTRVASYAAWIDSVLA
row,SMILES,IC50
1,"CCCCOP(=O)(O)c1ccc2c(C(C)=O)cn(CC(=O)N3C[C@H](F)C[C@H]3C(=O)NCc3cccc(Cl)c3F)c2c1 [Compound 21, butyl hydrogen 3-acetyl-1-(2-((2S,4R)-2-(3-chloro-2-fluorobenzylcarbamoyl)-4-fluoropyrrolidin-1-yl)-2-oxoethyl)-1H-indol-6-ylphosphonate]",< 1000 nM
2,"CC(=O)c1cn(CC(=O)N2C[C@H](F)C[C@H]2C(=O)NCc2cccc(Cl)c2F)c2ccc(P(=O)(O)O)cc12 [Compound 10, 3-acetyl-1-(2-((2S,4R)-2-(3-chloro-2-fluorobenzylcarbamoyl)-4-fluoropyrrolidin-1-yl)-2-oxoethyl)-1H-indol-5-ylphosphonic acid]",< 1000 nM
3,"CCOP(=O)(OCC)c1ccc2c(C(=O)O)nn(CC(=O)N3C[C@H](F)C[C@H]3C(=O)NCc3cccc(Cl)c3F)c2c1 [Compound 12, 1-(2-((2S,4R)-2-(3-chloro-2-fluorobenzylcarbamoyl)-4-fluoropyrrolidin-1-yl)-2-oxoethyl)-6-(diethoxyphosphoryl)-1H-indazole-3-carboxylic acid]",> 10000 nM
4,"CCOP(=O)(OCC)c1ccc2c(C(C)=O)cn(CC(=O)N3C[C@H](F)C[C@H]3C(=O)NCc3cccc(Cl)c3F)c2c1 [Compound 1, diethyl 3-acetyl-1-(2-((2S,4R)-2-(3-chloro-2-fluorobenzylcarbamoyl)-4-fluoropyrrolidin-1-yl)-2-oxoethyl)-1H-indol-6-ylphosphonate]",< 1000 nM
5,"CC(=O)c1cn(CC(=O)N2C[C@H](F)C[C@H]2C(=O)NCc2cccc(Cl)c2F)c2cc(P(=O)(O)OCOC(=O)C(C)(C)C)ccc12 [Compound 28, ((3-acetyl-1-(2-((2S,4R)-2-(3-chloro-2-fluorobenzylcarbamoyl)-4-fluoropyrrolidin-1-yl)-2-oxoethyl)-1H-indol-6-yl)(hydroxy)phosphoryloxy) methyl pivalate]",< 1000 nM
6,"CC(=O)c1cn(CC(=O)N2C[C@H](F)C[C@H]2C(=O)NCc2cccc(Cl)c2F)c2cc(P(=O)(O)O)ccc12 [Compound 3, 3-acetyl-1-(2-((2S,4R)-2-(3-chloro-2-fluorobenzylcarbamoyl)-4-fluoropyrrolidin-1-yl)-2-oxoethyl)-1H-indol-6-ylphosphonic acid]",< 1000 nM
7,"CCOP(=O)(OCOC(=O)OC(C)C)c1ccc2c(C(C)=O)cn(CC(=O)N3C[C@H](F)C[C@H]3C(=O)NCc3cccc(Cl)c3F)c2c1 (stereo partly drawn) [Compound 6, ((3-acetyl-1-(2-((2S,4R)-2-(3-chloro-2-fluorobenzylcarbamoyl)-4-fluoropyrrolidin-1-yl)-2-oxoethyl)-1H-indol-6-yl)(ethoxy)phosphoryloxy) methyl isopropyl carbonate]",< 1000 nM
8,"CCOC(=O)c1nn(CC(=O)N2C[C@H](F)C[C@H]2C(=O)NCc2cccc(Cl)c2F)c2cc(P(=O)(OCC)OCC)ccc12 [Compound 11, ethyl 1-(2-((2S,4R)-2-(3-chloro-2-fluorobenzylcarbamoyl)-4-fluoropyrrolidin-1-yl)-2-oxoethyl)-6-(diethoxyphosphoryl)-1H-indazole-3-carboxylate]",> 10000 nM
9,"CCOP(=O)(OCC)c1ccc2c(C(N)=O)cn(CC(=O)N3C[C@H](F)C[C@H]3C(=O)NCc3cccc(Cl)c3F)c2c1 [Compound 15, diethyl 3-carbamoyl-1-(2-((2S,4R)-2-(3-chloro-2-fluorobenzylcarbamoyl)-4-fluoropyrrolidin-1-yl)-2-oxoethyl)-1H-indol-6-ylphosphonate]",< 1000 nM
10,"CCOP(=O)(O)c1ccc2c(C(C)=O)cn(CC(=O)N3C[C@H](F)C[C@H]3C(=O)NCc3cccc(Cl)c3F)c2c1 [Compound 2, ethyl hydrogen 3-acetyl-1-(2-((2S,4R)-2-(3-chloro-2-fluorobenzylcarbamoyl)-4-fluoropyrrolidin-1-yl)-2-oxoethyl)-1H-indol-6-ylphosphonate]",< 1000 nM
11,"CC(=O)c1cn(CC(=O)N2C[C@H](F)C[C@H]2C(=O)NCc2cccc(Cl)c2F)c2cc(P(=O)(O)OCOC(=O)OC(C)C)ccc12 [Compound 22, ((3-acetyl-1-(2-((2S,4R)-2-(3-chloro-2-fluorobenzylcarbamoyl)-4-fluoropyrrolidin-1-yl)-2-oxoethyl)-1H-indol-6-yl)(hydroxy)phosphoryloxy) methyl isopropyl carbonate]",< 1000 nM
12,"NC(=O)c1nn(CC(=O)N2C[C@H](F)C[C@H]2C(=O)NCc2cccc(Cl)c2F)c2cc(P(=O)(O)O)ccc12 [Compound 18, 3-carbamoyl-1-(2-((2S,4R)-2-(3-chloro-2-fluorobenzylcarbamoyl)-4-fluoropyrrolidin-1-yl)-2-oxoethyl)-1H-indazol-6-ylphosphonic acid]",< 1000 nM
13,"CCOP(=O)(O)c1ccc2c(c1)c(C(C)=O)cn2CC(=O)N1C[C@H](F)C[C@H]1C(=O)NCc1cccc(Cl)c1F [Compound 9, ethyl hydrogen 3-acetyl-1-(2-((2S,4R)-2-(3-chloro-2-fluorobenzylcarbamoyl)-4-fluoropyrrolidin-1-yl)-2-oxoethyl)-1H-indol-5-ylphosphonate]",> 10000 nM
14,"CC(=O)c1cn(CC(=O)N2C[C@H](F)C[C@H]2C(=O)NCc2cccc(Cl)c2F)c2cc(P(=O)(OCOC(=O)OC(C)C)OCOC(=O)OC(C)C)ccc12 [Compound 4, ((3-acetyl-1-(2-((2S,4R)-2-(3-chloro-2-fluorobenzylcarbamoyl)-4-fluoropyrrolidin-1-yl)-2-oxoethyl)-1H-indol-6-yl)phosphoryl)bis(oxy)bis (methylene) isopropyl dicarbonate]",< 1000 nM
15,"CCOP(=O)(OCC)c1ccc2c(c1)c(C(C)=O)cn2CC(=O)N1C[C@H](F)C[C@H]1C(=O)NCc1cccc(Cl)c1F [Compound 8, diethyl 3-acetyl-1-(2-((2S,4R)-2-(3-chloro-2-fluorobenzylcarbamoyl)-4-fluoropyrrolidin-1-yl)-2-oxoethyl)-1H-indol-5-ylphosphonate]",< 1000 nM
16,"CC(=O)c1cn(CC(=O)N2C[C@H](F)C[C@H]2C(=O)NCc2cccc(Cl)c2F)c2cc(P(=O)(O)O)c(F)cc12 [Compound 31, 3-acetyl-1-(2-((2S,4R)-2-(3-chloro-2-fluorobenzylcarbamoyl)-4-fluoropyrrolidin-1-yl)-2-oxoethyl)-5-fluoro-1H-indol-6-ylphosphonic acid]",< 1000 nM
17,"NC(=O)c1cn(CC(=O)N2C[C@H](F)C[C@H]2C(=O)NCc2cccc(Cl)c2F)c2cc(P(=O)(O)O)ccc12 [Compound 16, 3-carbamoyl-1-(2-((2S,4R)-2-(3-chloro-2-fluorobenzylcarbamoyl)-4-fluoropyrrolidin-1-yl)-2-oxoethyl)-1H-indol-6-ylphosphonic acid]",< 1000 nM
18,"CCCCOP(=O)(OCCCC)c1ccc2c(C(C)=O)cn(CC(=O)N3C[C@H](F)C[C@H]3C(=O)NCc3cccc(Cl)c3F)c2c1 [Compound 20, dibutyl 3-acetyl-1-(2-((2S,4R)-2-(3-chloro-2-fluorobenzylcarbamoyl)-4-fluoropyrrolidin-1-yl)-2-oxoethyl)-1H-indol-6-ylphosphonate]",< 1000 nM
19,"CC(=O)c1cn(CC(=O)N2C[C@H](F)C[C@H]2C(=O)NCc2cccc(Cl)c2F)c2cc(P(=O)(OCOC(=O)C(C)(C)C)OCOC(=O)C(C)(C)C)ccc12 [Compound 26, ((3-acetyl-1-(2-((2S,4R)-2-(3-chloro-2-fluorobenzylcarbamoyl)-4-fluoropyrrolidin-1-yl)-2-oxoethyl)-1H-indol-6-yl)phosphoryl)bis(oxy)bis (methylene) bis(2,2-dimethylpropanoate)]",< 1000 nM
20,"CC(=O)c1cn(CC(=O)N2C[C@H](F)C[C@H]2C(=O)NCc2cccc(Cl)c2F)c2cc(P(=O)(O)OCC(F)(F)F)ccc12 [Compound 29, 2,2,2-trifluoroethyl hydrogen 3-acetyl-1-(2-((2S,4R)-2-(3-chloro-2-fluorobenzylcarbamoyl)-4-fluoropyrrolidin-1-yl)-2-oxoethyl)-1H-indol-6-ylphosphonate]",< 1000 nM
21,"O=C(NCc1cccc(Cl)c1F)[C@@H]1C[C@@H](F)CN1C(=O)Cn1cc(C(=O)C(F)(F)F)c2ccc(P(=O)(O)O)cc21 [Compound 32, 1-(2-((2S,4R)-2-(3-chloro-2-fluorobenzylcarbamoyl)-4-fluoropyrrolidin-1-yl)-2-oxoethyl)-3-(2,2,2-trifluoroacetyl)-1H-indol-6-ylphosphonic acid]",< 1000 nM
22,"CC(=O)c1cn(CC(=O)N2[C@@H]3CCC[C@@H]3C[C@H]2C(=O)NCc2cccc(Cl)c2F)c2cc(P(=O)(O)O)ccc12 [Compound 7, 3-acetyl-1-(2-((2S,3aR,6aR)-2-(3-chloro-2-fluorobenzylcarbamoyl)hexa-hydrocyclopenta[b]pyrrol-1(2H)-yl)-2-oxoethyl)-1H-indol-6-ylphosphonic acid]",< 1000 nM
23,"CCOP(=O)(OCC)c1cc2c(cc1F)c(C(C)=O)cn2CC(=O)N1C[C@H](F)C[C@H]1C(=O)NCc1cccc(Cl)c1F [Compound 30, diethyl 3-acetyl-1-(2-((2S,4R)-2-(3-chloro-2-fluorobenzylcarbamoyl)-4-fluoropyrrolidin-1-yl)-2-oxoethyl)-5-fluoro-1H-indol-6-ylphosphonate]",< 1000 nM
24,"CC(=O)c1cn(CC(=O)N2C[C@H](F)C[C@H]2C(=O)NCc2cccc(Cl)c2F)c2cc(P(=O)(OCC(F)(F)F)OCC(F)(F)F)ccc12 [Compound 19, bis(2,2,2-trifluoroethyl) 3-acetyl-1-(2-((2S,4R)-2-(3-chloro-2-fluorobenzylcarbamoyl)-4-fluoropyrrolidin-1-yl)-2-oxoethyl)-1H-indol-6-ylphosphonate]",< 1000 nM
25,"CCOP(=O)(OCC)c1ccc2c(C(N)=O)nn(CC(=O)N3C[C@H](F)C[C@H]3C(=O)NCc3cccc(Cl)c3F)c2c1 [Compound 17, diethyl 3-carbamoyl-1-(2-((2S,4R)-2-(3-chloro-2-fluorobenzylcarbamoyl)-4-fluoropyrrolidin-1-yl)-2-oxoethyl)-1H-indazol-6-ylphosphonate]",< 1000 nM
26,"CC(=O)c1cn(CC(=O)N2C[C@H](F)C[C@H]2C(=O)NCc2cccc(Cl)c2F)c2cc(P(=O)(O)c3ccccc3)ccc12 [Compound 25, 3-acetyl-1-(2-((2S,4R)-2-(3-chloro-2-fluorobenzylcarbamoyl)-4-fluoropyrrolidin-1-yl)-2-oxoethyl)-1H-indol-6-yl(phenyl)phosphinic acid]",< 1000 nM
